Values after ≈ are worked out from the molar mass of the structure shown.
Assays:
Klebsiella aerogenes = assay: Antibacterial activity against Klebsiella aerogenes 1522E; format: functional
[1] = Antibacterial activity against Salmonella oranienberg; format: functional, Salmonella enterica subsp. enterica serovar Oranienburg; conditions: Salmonella enterica
Enterococcus faecium = assay: Antibacterial activity against Streptococcus faecium 77A; format: functional
Enterobacter cloacae [2] = assay: Antibacterial activity against Enterobacter cloacae 417; format: functional
Staphylococcus aureus [3] = assay: Antibacterial activity against Staphylococcus aureus 209P; format: functional
Escherichia coli [4] = assay: Antibacterial activity against Escherichia coli DC2; format: functional
[5] = Antibacterial activity against Salmonella give; format: functional, Salmonella enterica subsp. enterica serovar Give; conditions: Salmonella enterica
Salmonella typhi = assay: Antibacterial activity against Salmonella typhi; format: functional, Salmonella enterica subsp. enterica serovar Typhi; conditions: Salmonella enterica
Proteus vulgaris = assay: Antibacterial activity against Proteus vulgaris 868; format: functional
Klebsiella pneumoniae = assay: Antibacterial activity against Klebsiella pneumonise 477; format: functional
Escherichia coli [6] = assay: Antibacterial activity against Escherichia coli 0114; format: functional
Pasteurella multocida = assay: Antibacterial activity against Pasteurella multocida; format: functional
Staphylococcus aureus [7] = assay: Antibacterial activity against Staphylococcus aureus 503; format: functional
Escherichia coli [8] = assay: Antibacterial activity against Escherichia coli 086; format: functional
[9] = test system: Corynebacterium diphtheriae; assay: Antibacterial activity against Corynebacterium diphtheriae; format: functional
Pseudomonas aeruginosa [10] = assay: Antibacterial activity against Pseudomonas aeruginosa 880/2; format: functional
Proteus mirabilis [11] = assay: Antibacterial activity against Proteus mirabilis 112/3; format: functional
Streptococcus agalactiae = assay: Antibacterial activity against Streptococcus agalactiae B; format: functional
Staphylococcus aureus [12] = assay: Antibacterial activity against Staphylococcus aureus SG511; format: functional
Escherichia coli [13] = assay: Antibacterial activity against Escherichia coil V6311/65; format: functional
Staphylococcus aureus [14] = assay: Antibacterial activity against Staphylococcus aureus giorgio; format: functional
Bacillus subtilis = assay: Antibacterial activity against Bacillus subtilts ATCC 6633; format: functional
Salmonella typhimurium = assay: Antibacterial activity against Salmonella Typhimurium; format: functional, Salmonella enterica subsp. enterica serovar Typhimurium; conditions: Salmonella enterica
Enterobacter cloacae [15] = assay: Antibacterial activity against Enterobactor cloacae 1321E; format: functional
Pseudomonas aeruginosa [16] = assay: Antibacterial activity against Pseudomonas aeruginosa 77/2; format: functional
Priestia megaterium = assay: Antibacterial activity against Bacillus megaterium; format: functional
Serratia marcescens [17] = assay: Antibacterial activity against Serratia marcescens 14273; format: functional
Escherichia coli [18] = assay: Antibacterial activity against Escherichia coli TEM; format: functional
Staphylococcus aureus [19] = assay: Antibacterial activity against Staphylococcus aureus 285; format: functional
Enterobacter cloacae [20] = assay: Antibacterial activity against Enterobacter cloacae; format: functional
Pseudomonas aeruginosa [21] = assay: Antibacterial activity against Pseudomonas aeruginosa 110/2; format: functional
Providencia rettgeri [22] = assay: Antibacterial activity against Proteus rettgeri 937; format: functional
Pseudomonas aeruginosa [23] = assay: Antibacterial activity against Pseudomonas aeruginosa 9027; format: functional
Serratia marcescens [24] = assay: Antibacterial activity against Serratia marcescens 370; format: functional
Trueperella pyogenes = assay: Antibacterial activity against Corynebacterium pyogenes; format: functional
Enterococcus durans = assay: Antibacterial activity against Streptococcus durans D; format: functional
Escherichia coli [25] = assay: Antibacterial activity against Escherichia coil 1507; format: functional
Salmonella = assay: Antibacterial activity against Salmonella orion; format: functional
Micrococcus luteus = assay: Antibacterial activity against Micrococcus luteus ATCC 9341; format: functional
Serratia marcescens [26] = assay: Antibacterial activity against Serratia marcescens 6093; format: functional
Burkholderia cepacia = assay: Antibacterial activity against Pseudomonas cepacia; format: functional
Proteus mirabilis [27] = assay: Antibacterial activity against Proteus mirabilis 174/3; format: functional
Escherichia coli [28] = assay: Antibacterial activity against Escherichia coli 0126; format: functional
Providencia rettgeri [29] = assay: Antibacterial activity against Proteus rettgeri 936; format: functional
Streptococcus pyogenes [30] = assay: Antibacterial activity against Streptococcus pyogenes 77A; format: functional
Streptococcus pyogenes [31] = assay: Antibacterial activity against Streptococcus pyogenes 308A; format: functional

Q: For `CNS(=O)(=O)NC/C(=N\OC)[C@@H]1C[C@H](SC2=C(C(=O)O)N3C(=O)[C@H]([C@@H](C)O)[C@H]3[C@H]2C)CN1`, which MIC (Klebsiella aerogenes) is on record?
A: 0.025 µg/mL (≈ 0.0509 µM)

Q: And the MIC [1]?
A: 0.2 µg/mL (≈ 0.407 µM)

Q: What about the MIC (Enterococcus faecium) of the same compound?
A: < 0.01 µg/mL

Q: And the MIC (Enterobacter cloacae [2])?
A: 0.05 µg/mL (≈ 0.102 µM)

Q: And the MIC (Staphylococcus aureus [3])?
A: 0.03 µg/mL (≈ 0.061 µM)

Q: What about the MIC (Escherichia coli [4]) of the same compound?
A: 0.013 µg/mL (≈ 0.0264 µM)

Q: And the MIC [5]?
A: 0.1 µg/mL (≈ 0.203 µM)

Q: And the MIC (Salmonella typhi)?
A: 0.03 µg/mL (≈ 0.061 µM)

Q: And the MIC (Proteus vulgaris)?
A: 0.4 µg/mL (≈ 0.814 µM)

Q: What about the MIC (Klebsiella pneumoniae) of the same compound?
A: 0.03 µg/mL (≈ 0.061 µM)

Q: What about the MIC (Escherichia coli [6]) of the same compound?
A: 0.03 µg/mL (≈ 0.061 µM)

Q: And the MIC (Pasteurella multocida)?
A: 0.05 µg/mL (≈ 0.102 µM)

Q: What about the MIC (Staphylococcus aureus [7]) of the same compound?
A: 0.03 µg/mL (≈ 0.061 µM)

Q: What about the MIC (Escherichia coli [8]) of the same compound?
A: 0.03 µg/mL (≈ 0.061 µM)

Q: What about the MIC [9] of the same compound?
A: 0.01 µg/mL (≈ 0.0203 µM)

Q: What about the MIC (Pseudomonas aeruginosa [10]) of the same compound?
A: 0.4 µg/mL (≈ 0.814 µM)

Q: And the MIC (Proteus mirabilis [11])?
A: 0.2 µg/mL (≈ 0.407 µM)

Q: And the MIC (Streptococcus agalactiae)?
A: 0.03 µg/mL (≈ 0.061 µM)

Q: And the MIC (Staphylococcus aureus [12])?
A: 0.049 µg/mL (≈ 0.0997 µM)

Q: What about the MIC (Escherichia coli [13]) of the same compound?
A: 0.05 µg/mL (≈ 0.102 µM)

Q: And the MIC (Staphylococcus aureus [14])?
A: 0.03 µg/mL (≈ 0.061 µM)

Q: What about the MIC (Bacillus subtilis) of the same compound?
A: 0.03 µg/mL (≈ 0.061 µM)

Q: What about the MIC (Salmonella typhimurium) of the same compound?
A: 0.025 µg/mL (≈ 0.0509 µM)

Q: And the MIC (Enterobacter cloacae [15])?
A: 0.013 µg/mL (≈ 0.0264 µM)

Q: And the MIC (Pseudomonas aeruginosa [16])?
A: 1.56 µg/mL (≈ 3.17 µM)

Q: What about the MIC (Priestia megaterium) of the same compound?
A: 0.05 µg/mL (≈ 0.102 µM)

Q: And the MIC (Serratia marcescens [17])?
A: 0.4 µg/mL (≈ 0.814 µM)

Q: What about the MIC (Escherichia coli [18]) of the same compound?
A: 0.025 µg/mL (≈ 0.0509 µM)

Q: And the MIC (Staphylococcus aureus [19])?
A: 0.098 µg/mL (≈ 0.199 µM)

Q: What about the MIC (Enterobacter cloacae [20]) of the same compound?
A: 0.01 µg/mL (≈ 0.0203 µM)

Q: What about the MIC (Pseudomonas aeruginosa [21]) of the same compound?
A: 0.8 µg/mL (≈ 1.63 µM)

Q: And the MIC (Providencia rettgeri [22])?
A: 0.4 µg/mL (≈ 0.814 µM)

Q: What about the MIC (Pseudomonas aeruginosa [23]) of the same compound?
A: 1.56 µg/mL (≈ 3.17 µM)

Q: What about the MIC (Serratia marcescens [24]) of the same compound?
A: 0.2 µg/mL (≈ 0.407 µM)

Q: What about the MIC (Trueperella pyogenes) of the same compound?
A: 0.01 µg/mL (≈ 0.0203 µM)

Q: What about the MIC (Enterococcus durans) of the same compound?
A: 0.1 µg/mL (≈ 0.203 µM)

Q: What about the MIC (Escherichia coli [25]) of the same compound?
A: 0.05 µg/mL (≈ 0.102 µM)

Q: And the MIC (Salmonella)?
A: 0.1 µg/mL (≈ 0.203 µM)

Q: What about the MIC (Micrococcus luteus) of the same compound?
A: 0.01 µg/mL (≈ 0.0203 µM)

Q: And the MIC (Serratia marcescens [26])?
A: 0.2 µg/mL (≈ 0.407 µM)

Q: And the MIC (Burkholderia cepacia)?
A: 0.4 µg/mL (≈ 0.814 µM)

Q: And the MIC (Proteus mirabilis [27])?
A: 0.2 µg/mL (≈ 0.407 µM)

Q: And the MIC (Escherichia coli [28])?
A: 0.03 µg/mL (≈ 0.061 µM)

Q: What about the MIC (Providencia rettgeri [29]) of the same compound?
A: 0.4 µg/mL (≈ 0.814 µM)

Q: What about the MIC (Streptococcus pyogenes [30]) of the same compound?
A: < 0.01 µg/mL

Q: And the MIC (Streptococcus pyogenes [31])?
A: < 0.01 µg/mL

Q: Which MIC (Klebsiella aerogenes) does the source give for `CCS(=O)(=O)NC/C(=N\OC)[C@@H]1C[C@H](SC2=C(C(=O)O)N3C(=O)[C@H]([C@@H](C)O)[C@H]3[C@H]2C)CN1` here?
A: 0.781 µg/mL (≈ 1.59 µM)

Q: And the MIC (Escherichia coli [4])?
A: 0.391 µg/mL (≈ 0.797 µM)

Q: What about the MIC (Staphylococcus aureus [12]) of the same compound?
A: 0.195 µg/mL (≈ 0.397 µM)

Q: What about the MIC (Salmonella typhimurium) of the same compound?
A: 1.56 µg/mL (≈ 3.18 µM)

Q: And the MIC (Enterobacter cloacae [15])?
A: 0.781 µg/mL (≈ 1.59 µM)

Q: And the MIC (Escherichia coli [18])?
A: 0.195 µg/mL (≈ 0.397 µM)

Q: And the MIC (Staphylococcus aureus [19])?
A: 0.781 µg/mL (≈ 1.59 µM)

Q: What about the MIC (Pseudomonas aeruginosa [23]) of the same compound?
A: 12.5 µg/mL (≈ 25.5 µM)

Q: What about the MIC (Streptococcus pyogenes [30]) of the same compound?
A: 0.098 µg/mL (≈ 0.2 µM)

Q: What about the MIC (Streptococcus pyogenes [31]) of the same compound?
A: 0.195 µg/mL (≈ 0.397 µM)

Q: With `CO/N=C(\CNC(C)=O)[C@@H]1C[C@H](SC2=C(C(=O)O)N3C(=O)[C@H]([C@@H](C)O)[C@H]3[C@H]2C)CN1` as the compound, how does the MIC (Klebsiella aerogenes) read?
A: 0.049 µg/mL (≈ 0.111 µM)

Q: What about the MIC (Escherichia coli [4]) of the same compound?
A: 0.025 µg/mL (≈ 0.0568 µM)

Q: And the MIC (Staphylococcus aureus [12])?
A: 0.049 µg/mL (≈ 0.111 µM)

Q: What about the MIC (Salmonella typhimurium) of the same compound?
A: 0.049 µg/mL (≈ 0.111 µM)

Q: What about the MIC (Enterobacter cloacae [15]) of the same compound?
A: 0.013 µg/mL (≈ 0.0295 µM)

Q: What about the MIC (Escherichia coli [18]) of the same compound?
A: 0.025 µg/mL (≈ 0.0568 µM)

Q: And the MIC (Staphylococcus aureus [19])?
A: 0.098 µg/mL (≈ 0.222 µM)

Q: What about the MIC (Pseudomonas aeruginosa [23]) of the same compound?
A: 1.56 µg/mL (≈ 3.54 µM)

Q: And the MIC (Streptococcus pyogenes [30])?
A: < 0.01 µg/mL

Q: What about the MIC (Streptococcus pyogenes [31]) of the same compound?
A: 0.013 µg/mL (≈ 0.0295 µM)

— ChEMBL document CHEMBL1143804, “Synthesis and antibacterial evaluation of 1beta-methyl-2-[5-(1-methoxyimino-2-substituted sulfonamide ethyl)pyrrolidin-3-ylthio]carbapenems and their related compounds” (2007)
